Among the data in the kinase profiling compilation of Christmann-Franck et al. (2016) are residual activity values, retold here.

The first assay concerns the target WNK2 (human) (UniProt Q9Y3S1). As to the kind of experiment: radiometric filter-binding kinase assay, Kinase HotSpot. To be noted: compound 0.5 µM; ATP 10 µM.
As to `CC[n+]1c(/C=C/N(C)c2ccccc2)n(-c2ccccc2)c2ccc(-c3nc4ccccc4s3)cc21`, the residual activity (usually the signal under treatment as a percentage of the control signal) is 112%.

Turning to `N#C/C(=C(/N)Sc1ccc(N)cc1)c1ccccc1C(F)(F)F`, the residual activity worked out at 109%.

`c1ccc(-c2n[nH]cc2-c2ccnc3ccccc23)nc1`: the residual activity turned out to be 49.2%.

Another assay deals with PASK (human) (UniProt Q96RG2). Described as above. To be noted: compound 0.5 µM; ATP 10 µM.
As to `CC[n+]1c(/C=C/N(C)c2ccccc2)n(-c2ccccc2)c2ccc(-c3nc4ccccc4s3)cc21`, the residual activity came out at 102%.

As to `N#C/C(=C(/N)Sc1ccc(N)cc1)c1ccccc1C(F)(F)F`, the residual activity was determined as 101%.

As for `c1ccc(-c2n[nH]cc2-c2ccnc3ccccc23)nc1`, the residual activity worked out at 77.1%.

Another assay deals with MAP3K14 (human) (UniProt Q99558). The description is as above. To be noted: compound 0.5 µM; ATP 10 µM.
Sequence of MAP3K14 (human) (Q99558 whole entry, looked up): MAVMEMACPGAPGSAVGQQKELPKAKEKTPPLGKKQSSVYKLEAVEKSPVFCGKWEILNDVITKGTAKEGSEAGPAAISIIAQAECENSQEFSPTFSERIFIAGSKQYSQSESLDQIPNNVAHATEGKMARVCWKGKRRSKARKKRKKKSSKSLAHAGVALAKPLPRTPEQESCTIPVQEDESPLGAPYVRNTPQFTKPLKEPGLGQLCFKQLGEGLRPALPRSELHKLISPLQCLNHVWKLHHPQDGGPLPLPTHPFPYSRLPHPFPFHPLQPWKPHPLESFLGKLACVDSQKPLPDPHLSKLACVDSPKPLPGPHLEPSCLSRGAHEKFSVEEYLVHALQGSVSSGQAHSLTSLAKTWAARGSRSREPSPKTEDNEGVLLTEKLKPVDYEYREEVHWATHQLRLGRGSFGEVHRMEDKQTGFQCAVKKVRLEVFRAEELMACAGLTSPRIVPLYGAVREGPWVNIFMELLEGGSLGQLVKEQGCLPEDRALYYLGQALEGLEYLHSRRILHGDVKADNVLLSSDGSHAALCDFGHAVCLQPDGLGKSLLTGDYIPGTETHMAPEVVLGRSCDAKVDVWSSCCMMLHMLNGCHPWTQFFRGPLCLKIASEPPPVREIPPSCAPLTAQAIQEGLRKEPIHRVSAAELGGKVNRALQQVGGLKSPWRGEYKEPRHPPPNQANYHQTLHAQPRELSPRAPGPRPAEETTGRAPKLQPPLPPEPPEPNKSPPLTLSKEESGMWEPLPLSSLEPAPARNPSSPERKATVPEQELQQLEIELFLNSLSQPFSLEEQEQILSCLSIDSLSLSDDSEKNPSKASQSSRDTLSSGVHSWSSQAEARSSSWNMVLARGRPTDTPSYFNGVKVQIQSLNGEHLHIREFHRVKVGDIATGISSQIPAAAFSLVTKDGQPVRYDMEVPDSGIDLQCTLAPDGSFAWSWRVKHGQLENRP
With `CC[n+]1c(/C=C/N(C)c2ccccc2)n(-c2ccccc2)c2ccc(-c3nc4ccccc4s3)cc21`, the residual activity is 96%.

For `N#C/C(=C(/N)Sc1ccc(N)cc1)c1ccccc1C(F)(F)F`, the residual activity was found to be 111%.

For the compound `c1ccc(-c2n[nH]cc2-c2ccnc3ccccc23)nc1`, the residual activity amounted to 116%.

The target in another assay is MAP3K11 (human) (UniProt Q16584). The description is as above. To be noted: compound 0.5 µM; ATP 10 µM.
Sequence of MAP3K11 (human) (Q16584 whole entry, looked up): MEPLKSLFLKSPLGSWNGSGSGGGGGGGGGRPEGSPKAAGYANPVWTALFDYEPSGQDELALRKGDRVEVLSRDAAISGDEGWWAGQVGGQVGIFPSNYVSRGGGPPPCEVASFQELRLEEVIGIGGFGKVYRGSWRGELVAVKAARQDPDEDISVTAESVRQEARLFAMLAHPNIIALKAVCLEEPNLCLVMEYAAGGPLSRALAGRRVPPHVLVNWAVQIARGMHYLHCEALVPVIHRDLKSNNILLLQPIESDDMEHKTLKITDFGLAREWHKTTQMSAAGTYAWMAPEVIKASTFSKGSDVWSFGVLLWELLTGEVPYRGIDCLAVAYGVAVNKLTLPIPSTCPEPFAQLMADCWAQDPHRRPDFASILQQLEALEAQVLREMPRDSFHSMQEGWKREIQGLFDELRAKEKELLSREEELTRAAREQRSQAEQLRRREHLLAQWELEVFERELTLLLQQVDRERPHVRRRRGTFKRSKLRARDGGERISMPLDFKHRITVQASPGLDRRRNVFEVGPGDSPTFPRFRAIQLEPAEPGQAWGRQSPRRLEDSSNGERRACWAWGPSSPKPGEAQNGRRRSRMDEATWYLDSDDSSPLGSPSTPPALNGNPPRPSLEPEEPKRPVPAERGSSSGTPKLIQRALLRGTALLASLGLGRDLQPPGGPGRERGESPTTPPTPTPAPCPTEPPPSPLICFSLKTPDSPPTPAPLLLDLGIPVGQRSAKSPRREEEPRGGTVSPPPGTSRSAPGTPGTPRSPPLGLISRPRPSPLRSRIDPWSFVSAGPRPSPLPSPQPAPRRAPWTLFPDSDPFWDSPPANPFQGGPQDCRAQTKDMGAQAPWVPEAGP
`CC[n+]1c(/C=C/N(C)c2ccccc2)n(-c2ccccc2)c2ccc(-c3nc4ccccc4s3)cc21`: the residual activity turned out to be 102%.

For the compound `N#C/C(=C(/N)Sc1ccc(N)cc1)c1ccccc1C(F)(F)F`, the residual activity stood at 99.9%.

For the compound `c1ccc(-c2n[nH]cc2-c2ccnc3ccccc23)nc1`, the residual activity turned out to be 96.5%.

A further assay deals with PTK2B (human) (UniProt Q14289). The assay is described as above. To be noted: compound 0.5 µM; ATP 10 µM.
Sequence of PTK2B (human) (Q14289 whole entry, looked up): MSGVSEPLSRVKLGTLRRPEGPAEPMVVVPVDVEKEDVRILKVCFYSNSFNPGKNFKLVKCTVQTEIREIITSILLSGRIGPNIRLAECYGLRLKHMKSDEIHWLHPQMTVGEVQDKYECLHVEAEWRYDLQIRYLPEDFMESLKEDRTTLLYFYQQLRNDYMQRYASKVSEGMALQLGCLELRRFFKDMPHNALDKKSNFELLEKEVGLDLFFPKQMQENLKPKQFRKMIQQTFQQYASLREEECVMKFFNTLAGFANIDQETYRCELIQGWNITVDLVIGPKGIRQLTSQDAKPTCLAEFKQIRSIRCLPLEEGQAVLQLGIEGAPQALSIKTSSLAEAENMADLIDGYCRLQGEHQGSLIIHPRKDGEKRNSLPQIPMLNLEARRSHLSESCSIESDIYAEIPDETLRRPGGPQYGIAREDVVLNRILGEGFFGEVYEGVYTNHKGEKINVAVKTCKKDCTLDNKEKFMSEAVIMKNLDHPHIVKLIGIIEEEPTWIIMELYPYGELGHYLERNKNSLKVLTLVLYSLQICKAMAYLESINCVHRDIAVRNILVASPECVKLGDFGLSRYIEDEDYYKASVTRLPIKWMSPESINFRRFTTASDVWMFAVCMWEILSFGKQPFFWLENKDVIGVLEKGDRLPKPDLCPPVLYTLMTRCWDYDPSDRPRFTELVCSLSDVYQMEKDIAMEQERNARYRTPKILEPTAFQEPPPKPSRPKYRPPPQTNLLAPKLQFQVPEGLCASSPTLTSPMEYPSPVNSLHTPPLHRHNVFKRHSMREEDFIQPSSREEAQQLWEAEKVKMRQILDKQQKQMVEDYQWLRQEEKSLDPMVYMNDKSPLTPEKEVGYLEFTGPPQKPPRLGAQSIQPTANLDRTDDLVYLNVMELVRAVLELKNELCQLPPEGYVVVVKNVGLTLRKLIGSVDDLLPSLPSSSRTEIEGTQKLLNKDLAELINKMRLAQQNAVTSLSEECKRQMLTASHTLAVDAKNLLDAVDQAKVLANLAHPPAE
With `CC[n+]1c(/C=C/N(C)c2ccccc2)n(-c2ccccc2)c2ccc(-c3nc4ccccc4s3)cc21`, the residual activity was 103%.

In the case of `N#C/C(=C(/N)Sc1ccc(N)cc1)c1ccccc1C(F)(F)F`, the residual activity was found to be 105%.

Turning to `c1ccc(-c2n[nH]cc2-c2ccnc3ccccc23)nc1`, the residual activity is 96.1%.

In a further assay the target is CLK2 (human) (UniProt P49760). Described as above. To be noted: compound 0.5 µM; ATP 10 µM.
Regarding `CC[n+]1c(/C=C/N(C)c2ccccc2)n(-c2ccccc2)c2ccc(-c3nc4ccccc4s3)cc21`, the residual activity was 98.4%.

With `N#C/C(=C(/N)Sc1ccc(N)cc1)c1ccccc1C(F)(F)F`, the residual activity is 100%.

`c1ccc(-c2n[nH]cc2-c2ccnc3ccccc23)nc1`: the residual activity turned out to be 99.4%.

Another assay addresses BRAF (human) (UniProt P15056). The description is as above. To be noted: compound 0.5 µM; ATP 10 µM.
`CC[n+]1c(/C=C/N(C)c2ccccc2)n(-c2ccccc2)c2ccc(-c3nc4ccccc4s3)cc21`: the residual activity was found to be 100%.

Consider `N#C/C(=C(/N)Sc1ccc(N)cc1)c1ccccc1C(F)(F)F`, for which the residual activity was found to be 95%.

In the case of `c1ccc(-c2n[nH]cc2-c2ccnc3ccccc23)nc1`, the residual activity came out at 95.7%.

For another assay, the target named is CDK1 CCNA2 (human) (UniProt P06493+P20248). The assay is described as above. To be noted: compound 0.5 µM; ATP 10 µM.
For the compound `CC[n+]1c(/C=C/N(C)c2ccccc2)n(-c2ccccc2)c2ccc(-c3nc4ccccc4s3)cc21`, the residual activity is 98.8%.

On to `N#C/C(=C(/N)Sc1ccc(N)cc1)c1ccccc1C(F)(F)F`, for which the residual activity is 91.2%.

With `c1ccc(-c2n[nH]cc2-c2ccnc3ccccc23)nc1`, the residual activity came out at 82.7%.

Another assay concerns the target ROCK2 (human) (UniProt O75116). Described as above. To be noted: compound 0.5 µM; ATP 10 µM.
In the case of `CC[n+]1c(/C=C/N(C)c2ccccc2)n(-c2ccccc2)c2ccc(-c3nc4ccccc4s3)cc21`, the residual activity came to 99.1%.

For `N#C/C(=C(/N)Sc1ccc(N)cc1)c1ccccc1C(F)(F)F`, the residual activity worked out at 100%.

`c1ccc(-c2n[nH]cc2-c2ccnc3ccccc23)nc1`: the residual activity amounted to 100%.

Another assay deals with RPS6KA3 KD1 KD2 (human) (UniProt P51812). The description is as above. To be noted: compound 0.5 µM; ATP 10 µM.
Sequence of RPS6KA3 KD1 KD2 (human) (P51812 whole entry, looked up): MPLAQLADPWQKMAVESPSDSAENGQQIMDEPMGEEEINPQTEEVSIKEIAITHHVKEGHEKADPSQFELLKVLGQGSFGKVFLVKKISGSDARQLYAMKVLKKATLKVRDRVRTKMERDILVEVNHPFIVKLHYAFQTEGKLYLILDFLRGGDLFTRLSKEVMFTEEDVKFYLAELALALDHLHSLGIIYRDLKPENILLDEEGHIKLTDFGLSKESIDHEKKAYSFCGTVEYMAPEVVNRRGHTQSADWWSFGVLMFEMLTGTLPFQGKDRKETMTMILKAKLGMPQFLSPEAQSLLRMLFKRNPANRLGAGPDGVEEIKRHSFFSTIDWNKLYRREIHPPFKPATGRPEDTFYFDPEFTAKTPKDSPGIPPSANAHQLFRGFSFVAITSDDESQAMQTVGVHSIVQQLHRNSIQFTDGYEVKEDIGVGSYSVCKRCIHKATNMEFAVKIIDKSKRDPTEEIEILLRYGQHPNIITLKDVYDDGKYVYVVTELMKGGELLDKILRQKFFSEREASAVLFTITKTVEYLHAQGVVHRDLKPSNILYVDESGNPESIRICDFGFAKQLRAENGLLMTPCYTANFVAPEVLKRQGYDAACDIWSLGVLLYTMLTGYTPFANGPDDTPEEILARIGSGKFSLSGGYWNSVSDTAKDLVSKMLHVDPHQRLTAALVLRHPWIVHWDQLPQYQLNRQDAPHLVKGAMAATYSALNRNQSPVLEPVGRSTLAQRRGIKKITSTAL
Take `CC[n+]1c(/C=C/N(C)c2ccccc2)n(-c2ccccc2)c2ccc(-c3nc4ccccc4s3)cc21`: the residual activity worked out at 109%.

As to `N#C/C(=C(/N)Sc1ccc(N)cc1)c1ccccc1C(F)(F)F`, the residual activity was found to be 100%.

`c1ccc(-c2n[nH]cc2-c2ccnc3ccccc23)nc1`: the residual activity was found to be 101%.

The target in another assay is DAPK1 (human) (UniProt P53355). The description is as above. To be noted: compound 0.5 µM; ATP 10 µM.
Take `CC[n+]1c(/C=C/N(C)c2ccccc2)n(-c2ccccc2)c2ccc(-c3nc4ccccc4s3)cc21`: the residual activity turned out to be 74.7%.

With `N#C/C(=C(/N)Sc1ccc(N)cc1)c1ccccc1C(F)(F)F`, the residual activity turned out to be 104%.

Turning to `c1ccc(-c2n[nH]cc2-c2ccnc3ccccc23)nc1`, the residual activity came to 111%.

For a further assay, the target named is ZAP70 (human) (UniProt P43403). The description is as above. To be noted: compound 0.5 µM; ATP 10 µM.
Regarding `CC[n+]1c(/C=C/N(C)c2ccccc2)n(-c2ccccc2)c2ccc(-c3nc4ccccc4s3)cc21`, the residual activity worked out at 95.5%.

For `N#C/C(=C(/N)Sc1ccc(N)cc1)c1ccccc1C(F)(F)F`, the residual activity came to 102%.

In the case of `c1ccc(-c2n[nH]cc2-c2ccnc3ccccc23)nc1`, the residual activity came to 100%.

The next assay concerns the target PLK1 (human) (UniProt P53350). The description is as above. To be noted: compound 0.5 µM; ATP 10 µM.
With `CC[n+]1c(/C=C/N(C)c2ccccc2)n(-c2ccccc2)c2ccc(-c3nc4ccccc4s3)cc21`, the residual activity stood at 110%.

Consider `N#C/C(=C(/N)Sc1ccc(N)cc1)c1ccccc1C(F)(F)F`, for which the residual activity is 92.6%.

For `c1ccc(-c2n[nH]cc2-c2ccnc3ccccc23)nc1`, the residual activity is 102%.

In the next assay the target is PRKCB2 (human) (UniProt P05771). The description is as above. To be noted: compound 0.5 µM; ATP 10 µM.
Consider `CC[n+]1c(/C=C/N(C)c2ccccc2)n(-c2ccccc2)c2ccc(-c3nc4ccccc4s3)cc21`, for which the residual activity came to 118%.

Turning to `N#C/C(=C(/N)Sc1ccc(N)cc1)c1ccccc1C(F)(F)F`, the residual activity turned out to be 103%.

`c1ccc(-c2n[nH]cc2-c2ccnc3ccccc23)nc1`: the residual activity was found to be 92.1%.

The next assay deals with FGFR1 (human) (UniProt P11362). The assay is described as above. To be noted: compound 0.5 µM; ATP 10 µM.
Sequence of FGFR1 (human) (P11362 whole entry, looked up): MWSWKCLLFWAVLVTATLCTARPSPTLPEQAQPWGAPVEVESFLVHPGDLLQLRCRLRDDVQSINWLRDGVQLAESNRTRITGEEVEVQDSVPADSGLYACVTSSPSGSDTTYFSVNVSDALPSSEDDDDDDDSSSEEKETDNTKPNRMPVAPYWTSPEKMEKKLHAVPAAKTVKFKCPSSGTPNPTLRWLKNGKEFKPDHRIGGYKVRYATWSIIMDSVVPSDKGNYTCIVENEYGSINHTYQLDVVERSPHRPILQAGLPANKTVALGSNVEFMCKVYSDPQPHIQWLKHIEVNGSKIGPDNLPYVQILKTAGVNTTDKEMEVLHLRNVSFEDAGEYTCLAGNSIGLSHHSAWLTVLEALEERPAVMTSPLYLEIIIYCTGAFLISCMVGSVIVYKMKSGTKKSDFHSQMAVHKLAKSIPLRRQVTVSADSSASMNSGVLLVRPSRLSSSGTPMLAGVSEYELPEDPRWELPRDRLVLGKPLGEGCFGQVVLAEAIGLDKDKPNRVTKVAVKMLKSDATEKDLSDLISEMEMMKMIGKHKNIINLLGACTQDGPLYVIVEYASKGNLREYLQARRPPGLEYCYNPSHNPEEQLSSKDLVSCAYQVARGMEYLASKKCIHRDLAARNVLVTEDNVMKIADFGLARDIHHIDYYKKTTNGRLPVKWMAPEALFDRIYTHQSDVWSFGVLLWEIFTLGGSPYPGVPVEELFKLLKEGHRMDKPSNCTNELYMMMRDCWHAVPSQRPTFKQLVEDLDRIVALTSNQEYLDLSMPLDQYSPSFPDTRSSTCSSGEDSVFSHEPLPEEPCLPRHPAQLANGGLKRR
Turning to `CC[n+]1c(/C=C/N(C)c2ccccc2)n(-c2ccccc2)c2ccc(-c3nc4ccccc4s3)cc21`, the residual activity worked out at 97.4%.

On to `N#C/C(=C(/N)Sc1ccc(N)cc1)c1ccccc1C(F)(F)F`, for which the residual activity stood at 108%.

`c1ccc(-c2n[nH]cc2-c2ccnc3ccccc23)nc1`: the residual activity is 94.2%.

The target in a further assay is NUAK1 (human) (UniProt O60285). The assay is described as above. To be noted: compound 0.5 µM; ATP 10 µM.
Sequence of NUAK1 (human) (O60285 whole entry, looked up): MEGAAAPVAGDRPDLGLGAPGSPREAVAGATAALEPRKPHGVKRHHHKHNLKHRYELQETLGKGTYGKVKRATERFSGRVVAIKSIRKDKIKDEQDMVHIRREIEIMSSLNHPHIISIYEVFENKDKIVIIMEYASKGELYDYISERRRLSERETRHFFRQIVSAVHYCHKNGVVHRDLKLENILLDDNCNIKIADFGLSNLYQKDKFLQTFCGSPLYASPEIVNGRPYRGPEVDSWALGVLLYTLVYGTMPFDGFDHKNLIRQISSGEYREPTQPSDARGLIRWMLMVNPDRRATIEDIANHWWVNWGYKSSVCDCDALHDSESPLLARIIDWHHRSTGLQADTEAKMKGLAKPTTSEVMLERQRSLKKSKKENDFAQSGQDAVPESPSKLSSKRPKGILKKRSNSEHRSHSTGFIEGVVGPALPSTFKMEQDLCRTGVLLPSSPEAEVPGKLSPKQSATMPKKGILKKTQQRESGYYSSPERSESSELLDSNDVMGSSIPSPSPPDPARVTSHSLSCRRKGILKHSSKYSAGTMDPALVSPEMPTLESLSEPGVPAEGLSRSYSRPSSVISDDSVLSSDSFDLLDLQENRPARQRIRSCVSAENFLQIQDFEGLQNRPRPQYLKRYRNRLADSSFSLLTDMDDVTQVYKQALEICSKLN
As for `CC[n+]1c(/C=C/N(C)c2ccccc2)n(-c2ccccc2)c2ccc(-c3nc4ccccc4s3)cc21`, the residual activity is 96.1%.

As to `N#C/C(=C(/N)Sc1ccc(N)cc1)c1ccccc1C(F)(F)F`, the residual activity was found to be 95.9%.

For `c1ccc(-c2n[nH]cc2-c2ccnc3ccccc23)nc1`, the residual activity came to 95.5%.

The next assay concerns the target DDR2 (human) (UniProt Q16832). Described as above. To be noted: compound 0.5 µM; ATP 10 µM.
For `CC[n+]1c(/C=C/N(C)c2ccccc2)n(-c2ccccc2)c2ccc(-c3nc4ccccc4s3)cc21`, the residual activity came out at 97.4%.

`N#C/C(=C(/N)Sc1ccc(N)cc1)c1ccccc1C(F)(F)F`: the residual activity is 102%.

As to `c1ccc(-c2n[nH]cc2-c2ccnc3ccccc23)nc1`, the residual activity was determined as 95.1%.

Another assay has as its target MAP2K1 (human) (UniProt Q02750). Described as above. To be noted: compound 0.5 µM; ATP 10 µM.
On to `CC[n+]1c(/C=C/N(C)c2ccccc2)n(-c2ccccc2)c2ccc(-c3nc4ccccc4s3)cc21`, for which the residual activity amounted to 93.5%.

As to `N#C/C(=C(/N)Sc1ccc(N)cc1)c1ccccc1C(F)(F)F`, the residual activity was 97.9%.

For the compound `c1ccc(-c2n[nH]cc2-c2ccnc3ccccc23)nc1`, the residual activity turned out to be 93.7%.

The next assay deals with FGFR2 (human) (UniProt P21802). The description is as above. To be noted: compound 0.5 µM; ATP 10 µM.
For `CC[n+]1c(/C=C/N(C)c2ccccc2)n(-c2ccccc2)c2ccc(-c3nc4ccccc4s3)cc21`, the residual activity was found to be 100%.

`N#C/C(=C(/N)Sc1ccc(N)cc1)c1ccccc1C(F)(F)F`: the residual activity stood at 101%.

For `c1ccc(-c2n[nH]cc2-c2ccnc3ccccc23)nc1`, the residual activity was 110%.

In another assay the target is NEK6 (human) (UniProt Q9HC98). Described as above. To be noted: compound 0.5 µM; ATP 10 µM.
Take `CC[n+]1c(/C=C/N(C)c2ccccc2)n(-c2ccccc2)c2ccc(-c3nc4ccccc4s3)cc21`: the residual activity came to 96.1%.

For `N#C/C(=C(/N)Sc1ccc(N)cc1)c1ccccc1C(F)(F)F`, the residual activity worked out at 101%.

With `c1ccc(-c2n[nH]cc2-c2ccnc3ccccc23)nc1`, the residual activity worked out at 106%.
